Data from patent US20070082073A1, “Catechin Adjuvants” (UNIVERSITY OF SOUTH FLORIDA, priority 2005, published 2007).
Values belong to the compound of their own block, whether it stands above or below them.

Columns and labels:
[1] = test system: doxorubicin resistance tumors; conditions: animal model; cited from earlier work
[2] = estimated/extrapolated EGCg plasma concentration after oral daily dose; assay type: in vivo, dogs
Experimental: Previous reports indicate in vivo therapeutic activity at a plasma concentration of 1 to 10 μM/L (Lambert & Yang, 2003). Swezey et. al (Swezey et al., 2003) studied the absorption, tissue distribution and elimination of 4-[^3H]-epigallocatechin gallate in beagle dogs and estimated that approximately 20% of the oral dose appears in plasma after one hour and a half life of approximately 8 h. Considering an underestimation of this value to be 50 μg/ml and the molecular weight of EGCg of […] a daily dose of 250 mg/kg/day would result in a plasma concentration of approximately 100 μM/L. The doses proposed herein would result in an extrapolated value of more than […] in plasma.

[3] = beagle dogs, cited from earlier work
[4] = test system: opportunistic microbial infections; assay: opportunistic microbial infections in canines treated with antimetabolites for lymphoma; assay type: in vivo
Text: There is a wide commercial need for inexpensive small molecular weight immunoenhancing drugs to enhance the immune response of individuals treated with antimetabolite anti-cancer drugs, which are immunosuppressive. We are using as the preclinical prototype pet canines treated for lymphoma, one of the most common cancers of dogs as well as humans.

plasma concentration ([2]; daily dose of 250 mg/kg/day): approximately 100 μM/L
plasma value, considered an underestimation ([2]; daily dose of 250 mg/kg/day): 50 µg/mL
extrapolated value in plasma ([2]; the doses proposed herein (6-60 mg/kg/day EGCg, oral)): more than 11 M/L
Compound: O=C(O[C@@H]1Cc2c(O)cc(O)cc2O[C@@H]1c1cc(O)c(O)c(O)c1)c1cc(O)c(O)c(O)c1 [EGCg, epigallocatechin gallate]
effect on doxorubicin resistance tumors [1]: revert doxorubicin resistance tumors

Compound: [3H]C1c2c(O)cc(O)cc2OC(c2cc(O)c(O)c(O)c2)C1OC(=O)c1cc(O)c(O)c(O)c1 (stereo not shown) [4-[^3H]-epigallocatechin gallate]
oral dose that appears in plasma ([3]; after one hour): approximately 20%
half life ([3]; oral dose): approximately 8 h

Compound: COc1cccc2c1C(=O)c1c(O)c3c(c(O)c1C2=O)C[C@@](O)(C(=O)CO)C[C@@H]3O[C@H]1C[C@H](N)[C@H](O)[C@H](C)O1 [adriamycin]
incidence of opportunistic microbial infections [4]: increased incidence of opportunistic microbial infections
